What all share (experiment): growth of human tumour cells (NCI), 48 h
The subject of assay [1] is 786-0 renal.
Assay [2] concerns HOP-62 NSCLC.
Assay [3] concerns SK-MEL-28 melanoma.
Assay [4] deals with UACC-257 melanoma.
Assay [5] concerns UACC-62 melanoma.
Assay [6] has as its system SR leukemia.
In assay [7] the test system is SK-OV-3 ovarian.
Assay [8] has as its system NCI-H23 lung.

Structures are written as SMILES.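 A five-concentration, 48-hour dose response in 96-well plates underlies each endpoint, interpolated linearly between surrounding concentrations. TGI: total growth inhibition.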 A value given as a limit tells only on which side of the number the result lay.

Consider `COC(=O)C(=O)C(C#N)c1cccc2ccccc12` (configuration not stated), for which the TGI in assay [1], in assay [2], in assay [3], in assay [4], in assay [5] and in assay [6] was over 100 µM throughout. In addition, the TGI in assay [7] and in assay [8] was over 100 µM throughout.
For `O=C(CC(O)(c1ccccc1)c1ccc(Cl)cc1)NC(=O)c1ccccc1O` (configuration not stated), the TGI in assay [1] is 44.9 µM; in assay [2], 25.6 µM; in assay [3], over 100 µM; in assay [4] it was 32.6 µM; in assay [5], 21.3 µM; in assay [6] it was 39.6 µM. The TGI worked out at 55.4 µM in assay [7] and 26.9 µM in assay [8].
In the case of `CCCOC(=O)C1CCC(=O)N1C(=O)C(Cl)Cl` (configuration not stated), the TGI in assay [1], in assay [2], in assay [3], in assay [4], in assay [5] and in assay [7] was over 100 µM each time. In addition, the TGI in assay [8] was over 100 µM.
Take `CN(C)CCCn1cnc2ncccc2c1=O`: the TGI in assay [1], in assay [2], in assay [3], in assay [5], in assay [6] and in assay [7] was over 100 µM throughout. In addition, the TGI in assay [8] is over 100 µM.
For the compound `CCOC(=O)C(C(=O)c1ccccc1-c1ccccc1C(=O)O)=P(c1ccccc1)(c1ccccc1)c1ccccc1`, the TGI in assay [1] is over 100 µM; in assay [2] it was 40.5 µM; in assay [3], 33.3 µM; in assay [4], 76.4 µM; in assay [5] it was 33 µM; in assay [6], 85.1 µM. Further, the TGI in assay [8] came to 40 µM.
As to `O=C(c1ccccc1)c1nnn(Cc2cccc(Cl)c2)c1C(=O)c1ccccc1`, the TGI in assay [1], in assay [2], in assay [3], in assay [4], in assay [5] and in assay [6] was over 100 µM each time. Moreover, the TGI in assay [7] and in assay [8] was over 100 µM throughout.
As for `COc1ccc(NC(=O)CC/C(CC(=O)c2ccco2)=N/Nc2ccc([N+](=O)[O-])cc2[N+](=O)[O-])cc1`, the TGI in assay [1] was over 100 µM; in assay [2], over 100 µM; in assay [3] it was over 100 µM; in assay [4] it was over 100 µM; in assay [5] it was over 100 µM; in assay [6], 64.4 µM. Further, the TGI in assay [7] and in assay [8] was over 100 µM in each case.
Consider `COC1CCC(=C2C(=O)OC(C)(C)OC2=O)N1` (configuration not stated), for which the TGI in assay [1], in assay [2], in assay [3], in assay [4], in assay [5] and in assay [7] was over 100 µM each time. Moreover, the TGI in assay [8] is over 100 µM.
Regarding `Cc1c(C(=O)/C=C/c2ccco2)[n+](=O)c2ccccc2n1[O-]`, the TGI in assay [1], in assay [3], in assay [4], in assay [5], in assay [6] and in assay [7] was over 100 µM in each case. Also, the TGI in assay [8] was over 100 µM.
On to `COC(=O)C1=Cc2cc3c(cc2[C@H](c2ccc4c(c2)OCO4)C1C(=O)OC)OCO3` (some centres not stated), for which the TGI in assay [1], in assay [2], in assay [3], in assay [4], in assay [5] and in assay [6] was over 100 µM throughout. In addition, the TGI in assay [7] and in assay [8] was over 100 µM in each case.
As to `N#Cc1c([N+](=O)[O-])cc(C(F)(F)F)cc1[N+](=O)[O-]`, the TGI in assay [1] was 12.7 µM; in assay [2], 32.8 µM; in assay [3] it was 21.2 µM; in assay [4], 19.2 µM; in assay [5], 12.2 µM; in assay [7] it was 33.2 µM. Moreover, the TGI in assay [8] was determined as 19.2 µM.
Consider `COC1OC(OC)C2C(c3c(C)cc(C)cc3C)=NOC12` (configuration not stated), for which the TGI in assay [1], in assay [2], in assay [3], in assay [4], in assay [5] and in assay [6] was over 100 µM in each case. Moreover, the TGI in assay [7] and in assay [8] was over 100 µM throughout.
With `O=c1[nH]nc(-c2ccccc2)c(-c2ccccc2)c1-n1nc(-c2ccccc2)c2ccccc2c1=O`, the TGI in assay [1], in assay [2], in assay [3], in assay [4], in assay [5] and in assay [6] was over 100 µM each time. In addition, the TGI in assay [7] and in assay [8] was over 100 µM throughout.
Take `CCC12C=CCN3CC[C@]4(C(=C(C(=O)OC)[C@@H]1Nc1ncnc5c1ncn5C1OC(COC(C)=O)C(OC(C)=O)C1OC(C)=O)Nc1ccccc14)C32` (some centres not stated): the TGI in assay [1] is 4.01 µM; in assay [2] it was 5.83 µM; in assay [3], 10.8 µM; in assay [4], 16.8 µM; in assay [5] it was 10.3 µM; in assay [6], 6.17 µM. The TGI was found to be 5.32 µM in assay [7] and 4.06 µM in assay [8].
As for `CCc1ccc(Cc2ccc(CC)c(NC(=O)C(=O)Cc3nc4ccccc4nc3C)c2CC)c(CC)c1NC(=O)C(=O)Cc1nc2ccccc2nc1C`, the TGI in assay [1], in assay [2], in assay [3], in assay [4], in assay [5] and in assay [7] was over 100 µM in each case. This compound displayed a TGI in assay [8] of over 100 µM.
For `[N-]=[N+]=Nc1ccc(S(=O)(=O)Oc2cc(OS(=O)(=O)c3ccc(N=[N+]=[N-])cc3)cc(OS(=O)(=O)c3ccc(N=[N+]=[N-])cc3)c2)cc1`, the TGI in assay [1], in assay [2], in assay [3], in assay [4], in assay [5] and in assay [6] was over 100 µM each time. The compound further came in with a TGI in assay [8] of over 100 µM.
Take `CC(C)c1ccc2c(c1)CCC1C(C)(C)[C@@H](O)CC[C@]21C` (some centres not stated): the TGI was 52.5 µM in assay [1]; 37.4 µM in assay [2]; over 100 µM in assay [3]; over 100 µM in assay [5]; 33.4 µM in assay [6]; over 100 µM in assay [7]. Moreover, the TGI in assay [8] is 93 µM.
